Experiments:
rape = experiment: Test B pre/postemergence rape; type: in vivo, Brassica napus
In short: (§1)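 Response is a visual 0-to-10 score relative to untreated plants, where 0 means no effect and 10 means complete control, taken twelve to sixteen days after application. Treatments went onto soil at planting and onto foliage of 1- to 4-leaf plants, using a surfactant-containing non-phytotoxic solvent.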

wild oat = experiment: Test B pre/postemergence wild oat; type: in vivo, Avena fatua
In short: as §1

purple nutsedge = experiment: Test B pre/postemergence purple nutsedge; type: in vivo, Cyperus rotundus
In short: as §1

giant foxtail = experiment: Test B pre/postemergence giant foxtail; type: in vivo, Setaria faberii
In short: as §1

rice = experiment: Test B flood test rice; type: in vivo, Oryza sativa
In short: (§2)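 Flood test on plants grown to the 2-leaf stage; treated plants kept in greenhouse twelve to sixteen days, then visually rated against controls on a 0 (no effect) to 10 (complete control) scale.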

corn = experiment: Test B pre/postemergence corn; type: in vivo, Zea mays
In short: as §1

duck salad = experiment: Test B flood test duck salad; type: in vivo, Heteranthera limosa
In short: as §2

soybean = experiment: Test B pre/postemergence soybean; type: in vivo, Glycine max
In short: as §1

blackgrass = experiment: Test B pre/postemergence blackgrass; type: in vivo, Alopecurus myosuroides
In short: as §1

surinam grass = experiment: Test B pre/postemergence surinam grass; type: in vivo, Brachiaria decumbens
In short: as §1

crabgrass = experiment: Test B pre/postemergence crabgrass; type: in vivo, Digitaria sanguinalis
In short: as §1

morningglory = experiment: Test B pre/postemergence morningglory; type: in vivo, Ipomoea hederacea
In short: as §1

smallflower flatsedge = experiment: Test B flood test smallflower flatsedge; type: in vivo, Cyperus difformis
In short: as §2

wheat = experiment: Test B pre/postemergence wheat; type: in vivo, Triticum aestivum
In short: as §1

velvetleaf = experiment: Test B pre/postemergence velvetleaf; type: in vivo, Abutilon theophrasti
In short: as §1

bedstraw = experiment: Test B pre/postemergence bedstraw; type: in vivo, Galium aparine
In short: as §1

[1] = Preemergence, Rate 62 g/ha, scale of 0 to 10 where 0 is no effect and 10 is complete control
[2] = Preemergence, Rate 250 g/ha, scale of 0 to 10 where 0 is no effect and 10 is complete control
[3] = Preemergence, Rate 500 g/ha, scale of 0 to 10 where 0 is no effect and 10 is complete control
[4] = Rate 125 g/ha, Postemergence, scale of 0 to 10 where 0 is no effect and 10 is complete control
[5] = Rate 125 g/ha, Preemergence, scale of 0 to 10 where 0 is no effect and 10 is complete control
[6] = Rate 250 g/ha, Postemergence, scale of 0 to 10 where 0 is no effect and 10 is complete control
[7] = Rate 500 g/ha, Postemergence, scale 0 to 10, 0 no effect, 10 complete control
[8] = Rate 62 g/ha, headed Pre-emergence (flood test species), scale 0 to 10 (0 no effect, 10 complete control)
[9] = Rate 125 g/ha, Pre-emergence, flood test species, scale 0 to 10 where 0 is no effect and 10 is complete control
[10] = Rate 250 g/ha, Pre-emergence, flood-test species, scale 0 to 10, 0 is no effect, 10 is complete control
[11] = Rate 500 g/ha, Pre-emergence, flood test species, scale 0 to 10 (0 no effect, 10 complete control)
[12] = Rate 62 g/ha, Postemergence, scale of 0 to 10 where 0 is no effect and 10 is complete control

CC(C)N(C(=O)n1oc(=O)n(C2CCCC2)c1=O)c1ccc(F)cc1 [Compound 271]
7: Giant foxtail plant response rating (giant foxtail; [7]) | Crabgrass plant response rating (crabgrass; [2]) | Plant response rating, Morningglory (morningglory; [3]) | Velvetleaf plant response rating (velvetleaf; [2])
10: Rape plant response rating (rape; [2]) | Plant response rating, Rape (rape; [3]) | Giant foxtail plant response rating (giant foxtail; [2]) | Plant response rating, Giant foxtail (giant foxtail; [3]) | Giant foxtail plant response rating (giant foxtail; [5]) | Blackgrass plant response rating (blackgrass; [2]) | Plant response rating, Blackgrass (blackgrass; [3]) | Plant response rating, B. signalgrass (surinam grass; [3]) | Bedstraw plant response rating (bedstraw; [2]) | Plant response rating, Bedstraw (bedstraw; [3]) | Bedstraw plant response rating (bedstraw; [5])
2: Rape plant response rating (rape; [1]) | Wild oats plant response rating (wild oat; [1]) | Plant response rating, B. signalgrass (surinam grass; [6]) | Morningglory plant response rating (morningglory; [2]) | Morningglory plant response rating (morningglory; [4]) | Velvetleaf plant response rating (velvetleaf; [1])
6: Rape plant response rating (rape; [7]) | Wild oats plant response rating (wild oat; [2]) | Soybean plant response rating (soybean; [7]) | Bedstraw plant response rating (bedstraw; [4])
9: Blackgrass plant response rating (blackgrass; [5])
3: Rape plant response rating (rape; [4]) | Wild oats plant response rating (wild oat; [7]) | Giant foxtail plant response rating (giant foxtail; [4]) | Plant response rating, Corn (corn; [3]) | Blackgrass plant response rating (blackgrass; [12]) | Crabgrass plant response rating (crabgrass; [1]) | Plant response rating, Wheat (wheat; [3]) | Velvetleaf plant response rating (velvetleaf; [7]) | Bedstraw plant response rating (bedstraw; [1])
4: Rape plant response rating (rape; [5]) | Plant response rating, Rape (rape; [6]) | Plant response rating, Giant foxtail (giant foxtail; [6]) | Blackgrass plant response rating (blackgrass; [4]) | Velvetleaf plant response rating (velvetleaf; [5]) | Bedstraw plant response rating (bedstraw; [12])
8: Plant response rating, Wild oats (wild oat; [3]) | Giant foxtail plant response rating (giant foxtail; [1]) | Blackgrass plant response rating (blackgrass; [1]) | Plant response rating, Blackgrass (blackgrass; [6]) | Blackgrass plant response rating (blackgrass; [7]) | B. signalgrass plant response rating (surinam grass; [1]) | B. signalgrass plant response rating (surinam grass; [2]) | B. signalgrass plant response rating (surinam grass; [5]) | Plant response rating, Crabgrass (crabgrass; [3]) | Plant response rating, Morningglory (morningglory; [6]) | Morningglory plant response rating (morningglory; [7]) | Plant response rating, Velvetleaf (velvetleaf; [3]) | Plant response rating, Bedstraw (bedstraw; [6]) | Bedstraw plant response rating (bedstraw; [7])
5: Soybean plant response rating (soybean; [4]) | Plant response rating, Soybean (soybean; [6]) | B. signalgrass plant response rating (surinam grass; [7]) | Crabgrass plant response rating (crabgrass; [5]) | Crabgrass plant response rating (crabgrass; [7])
1: Plant response rating, Soybean (soybean; [3]) | Crabgrass plant response rating (crabgrass; [4]) | Plant response rating, Crabgrass (crabgrass; [6]) | Morningglory plant response rating (morningglory; [1]) | Morningglory plant response rating (morningglory; [5])
0: Wild oats plant response rating (wild oat; [4]) | Plant response rating, Wild oats (wild oat; [6]) | Nutsedge plant response rating (purple nutsedge; [1]) | Nutsedge plant response rating (purple nutsedge; [2]) | Plant response rating, Nutsedge (purple nutsedge; [3]) | Nutsedge plant response rating (purple nutsedge; [4]) | Nutsedge plant response rating (purple nutsedge; [5]) | Plant response rating, Nutsedge (purple nutsedge; [6]) | Nutsedge plant response rating (purple nutsedge; [7]) | Rice plant response rating (rice; [8]) | Rice plant response rating (rice; [9]) | Rice plant response rating (rice; [10]) | Rice plant response rating (rice; [11]) | Corn plant response rating (corn; [1]) | Corn plant response rating (corn; [2]) | Corn plant response rating (corn; [12]) | Corn plant response rating (corn; [4]) | Corn plant response rating (corn; [5]) | Plant response rating, Corn (corn; [6]) | Corn plant response rating (corn; [7]) | Ducksalad plant response rating (duck salad; [8]) | Ducksalad plant response rating (duck salad; [9]) | Ducksalad plant response rating (duck salad; [10]) | Ducksalad plant response rating (duck salad; [11]) | Soybean plant response rating (soybean; [1]) | Soybean plant response rating (soybean; [2]) | Soybean plant response rating (soybean; [5]) | B. signalgrass plant response rating (surinam grass; [12]) | B. signalgrass plant response rating (surinam grass; [4]) | S. Flatsedge plant response rating (smallflower flatsedge; [8]) | S. Flatsedge plant response rating (smallflower flatsedge; [9]) | S. Flatsedge plant response rating (smallflower flatsedge; [10]) | S. Flatsedge plant response rating (smallflower flatsedge; [11]) | Wheat plant response rating (wheat; [1]) | Wheat plant response rating (wheat; [2]) | Wheat plant response rating (wheat; [4]) | Wheat plant response rating (wheat; [5]) | Plant response rating, Wheat (wheat; [6]) | Wheat plant response rating (wheat; [7]) | Velvetleaf plant response rating (velvetleaf; [4]) | Plant response rating, Velvetleaf (velvetleaf; [6])
